The conditions of this data set: dog, in vivo.
Protocol: The objective of this study was to determine the bioavailability of 4 novel insulin dry powder formulations following administration by the inhalation route. Each test formulation was administered to 5 dogs and the plasma insulin and whole blood glucose levels were determined. Comparative bioavailability was assessed against a marketed insulin formulation (E) administered subcutaneously. Inhalation administration was undertaken via a surgically prepared tracheostome to allow direct entry to the bronchiopulmonary region of the lungs.
The four test materials coded A-D (for inhalation administration), were supplied as spray-dried powder formulations in glass vials, whilst formulation E (for subcutaneous administration) was supplied as a liquid. Formulations A-D were stored in the dark at ambient room temperature, whilst formulation E was stored at +4° C.
Formulation E (Humulin S) was supplied as a 100 IU/ml solution. The dose required for the pilot phase of the study was 1.5 IU/dog. Due to the small volumes of Humulin S required, this formulation was diluted with sterile water for injection to allow larger volumes of the correct dose level to be administered.
For the main study, 5 dogs (Animals 2-6) were used. Initially each dog received a subcutaneous dose of insulin (1.5 IU) to provide comparative plasma insulin and whole blood glucose levels. Following a minimum 2-3 day wash-out period, each dog was administered one of the 4 insulin formulations, in a randomised order, by direct inhalation exposure (7.5 IU) to an aerosol bolus delivered via a surgically prepared tracheostome. The remaining 3 insulin formulations were administered in a similar manner at approximately 2 day intervals. The tracheostome was surgically prepared, with the dogs under general anaesthesia, approximately 2 weeks before dosing.
The administered doses of insulin were derived by analytical determination by subtracting the amount of insulin retained in the dosing device from the total insulin loaded. The actual insulin units delivered are calculated based on the assumption that each milligram of insulin is equivalent to 28.6 units.
Serial blood samples were obtained on each day of treatment to determine plasma insulin and whole blood glucose levels.
A linear trapezoidal calculation of the area under the curve (AUC) was used to derive the values from the overall mean insulin blood concentration data.
Regarding “20% Zinc Insulin in Trehalose [Formulation D]”, the “AUC Normalised (Relative %)” value was “(17.0) %”, the “AUC Normalised (relative to the subcutaneous dose of 1.5 units)” value worked out at 495 uU.min/ml, the “AUC Per Dose” value worked out at 2355 uU.min/ml and the “rank of AUC following normalisation to the doses administered” value is “highest AUC”.
Turning to “95% Zinc Insulin in Trehalose [Formulation C]”, the “AUC Normalised (Relative %)” value is recorded as “(6.4) %”, the “AUC Normalised (relative to the subcutaneous dose of 1.5 units)” value came out at 188 uU.min/ml and the “AUC Per Dose” value was determined as 625 uU.min/ml.
The matching figures for Humulin S [Formulation E]: “(100) %”, 2916 uU.min/ml and 2916 uU.min/ml.
Turning to Insulin Without Zinc [Formulation B], the “AUC Normalised (Relative %)” value is recorded as “(8.0) %”, the “AUC Normalised (relative to the subcutaneous dose of 1.5 units)” value is on record as 234 uU.min/ml and the “AUC Per Dose” value was found to be 773 uU.min/ml.
The matching figures for Zinc Insulin [Formulation A]: “(4.2) %”, 123 uU.min/ml and 657 uU.min/ml.

The values above are taken from US20030148925A1, “Insulin formulation for inhalation” (priority 2000, published 2003).
